Results: patent US20240299385A1 (ReWind Therapeutics NV, priority 2021, published 2024)

Molecular target: T1, human GPR17 receptor (Homo sapiens, UniProt Q13304)
T1 construct: host or cells: HEK-293
Experiment: Calcium mobilization functional assay (Fluo-8, FLIPR TETRA) in HEK-293 hGPR17 (Gα-q assay)
Assay type: cell-based
Conditions: antagonism of MDL29,951 (~EC80) induced Ca2+ signal; cell line (HEK-293 hGPR17 or HEK-293 Suchi5 hGPR17) not given
How it was run: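 Fluo-8-loaded HEK-293 hGPR17 cells (60 min dye loading, room temperature) were preincubated with compound for twenty minutes, then challenged with agonist MDL29,951 at ~EC80, 500 nM. Intracellular calcium release via Gα-q was recorded as FLIPR fluorescence for a further 2 minutes; compounds tested in duplicate.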

T1 sequence (Q13304 whole entry): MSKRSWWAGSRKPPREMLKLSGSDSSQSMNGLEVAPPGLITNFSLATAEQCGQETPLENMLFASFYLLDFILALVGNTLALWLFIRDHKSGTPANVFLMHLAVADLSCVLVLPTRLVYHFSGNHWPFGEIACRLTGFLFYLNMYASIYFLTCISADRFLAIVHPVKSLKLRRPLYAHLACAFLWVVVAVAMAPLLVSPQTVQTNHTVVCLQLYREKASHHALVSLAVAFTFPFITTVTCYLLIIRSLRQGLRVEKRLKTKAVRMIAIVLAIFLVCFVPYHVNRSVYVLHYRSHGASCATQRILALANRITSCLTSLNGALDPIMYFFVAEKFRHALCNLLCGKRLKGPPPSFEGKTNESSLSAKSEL

Row | IC50 | SMILES
1 | 500 to 5000 nM | COc1nc(Cl)c(F)cc1NS(=O)(=O)c1c[nH]cc1Cc1ccccc1 [Cpd 427, 4-benzyl-N-(6-chloro-5-fluoro-2-methoxypyridin-3-yl)-1H-pyrrole-3-sulfonamide]
2 | 500 to 5000 nM | COc1nc(Cl)c(F)cc1NS(=O)(=O)c1c[nH]cc1-c1cccc(F)c1 [Cpd 428, N-(6-chloro-5-fluoro-2-methoxypyridin-3-yl)-4-(3-fluorophenyl)-1H-pyrrole-3-sulfonamide]
3 | 500 to 5000 nM | COc1cc(OC(F)F)cnc1NS(=O)(=O)c1c[nH]c(-c2ccccc2)c1 [Cpd 429, N-[5-(difluoromethoxy)-3-methoxypyridin-2-yl]-5-phenyl-1H-pyrrole-3-sulfonamide]
4 | < 500 nM | O=S(=O)(Nc1cc(F)c(C(F)(F)F)cc1F)c1c[nH]c(C2CCC2)c1 [Cpd 430, 5-cyclobutyl-N-(2,5-difluoro-4-(trifluoromethyl)phenyl)-1H-pyrrole-3-sulfonamide]
5 | 5000 to 50000 nM | COc1nc(Br)cnc1NS(=O)(=O)c1c[nH]cc1Cc1ccccc1 [Cpd 431, 4-benzyl-N-(5-bromo-3-methoxypyrazin-2-yl)-1H-pyrrole-3-sulfonamide]
6 | 500 to 5000 nM | O=S(=O)(Nc1ncc(OCC(F)F)cc1F)c1c[nH]cc1Cc1ccccc1 [Cpd 432, 4-benzyl-N-[5-(2,2-difluoroethoxy)-3-fluoropyridin-2-yl]-1H-pyrrole-3-sulfonamide]
7 | 5000 to 50000 nM | COc1cc(OC(F)F)cnc1NS(=O)(=O)c1c[nH]cc1Cc1ccccc1 [Cpd 433, 4-benzyl-N-[5-(difluoromethoxy)-3-methoxypyridin-2-yl]-1H-pyrrole-3-sulfonamide]
8 | 500 to 5000 nM | O=S(=O)(Nc1ncc(OCC(F)F)cc1F)c1c[nH]c(-c2ccccc2)c1 [Cpd 434, N-[5-(2,2-difluoroethoxy)-3-fluoropyridin-2-yl]-5-phenyl-1H-pyrrole-3-sulfonamide]
9 | 500 to 5000 nM | COc1nc(Br)cnc1NS(=O)(=O)c1c[nH]c(-c2ccccc2)c1 [Cpd 435, N-(5-bromo-3-methoxypyrazin-2-yl)-5-phenyl-1H-pyrrole-3-sulfonamide]
10 | < 500 nM | COc1nc(OCC(F)F)c(F)cc1NS(=O)(=O)c1c[nH]c(-c2ccccc2)c1 [Cpd 436, N-[6-(2,2-difluoroethoxy)-5-fluoro-2-methoxypyridin-3-yl]-5-phenyl-1H-pyrrole-3-sulfonamide]
11 | 5000 to 50000 nM | N#Cc1ccc(NS(=O)(=O)c2c[nH]cc2-c2cccnc2)c(F)c1 [Cpd 437, N-(4-cyano-2-fluorophenyl)-4-(pyridin-3-yl)-1H-pyrrole-3-sulfonamide]
12 | 5000 to 50000 nM | O=S(=O)(Nc1ncc(OCC(F)F)cc1F)c1c[nH]cc1-c1cccc(F)c1 [Cpd 438, N-[5-(2,2-difluoroethoxy)-3-fluoropyridin-2-yl]-4-(3-fluorophenyl)-1H-pyrrole-3-sulfonamide]
13 | < 500 nM | N#Cc1cc(F)c(NS(=O)(=O)c2c[nH]cc2Cc2ccccc2)cc1Cl [Cpd 439, 4-benzyl-N-(5-chloro-4-cyano-2-fluorophenyl)-1H-pyrrole-3-sulfonamide]
14 | < 500 nM | Cc1cc(NS(=O)(=O)c2c[nH]cc2Cc2ccccc2)c(F)cc1C#N [Cpd 440, 4-benzyl-N-(4-cyano-2-fluoro-5-methylphenyl)-1H-pyrrole-3-sulfonamide]
15 | < 500 nM | N#Cc1ccc(NS(=O)(=O)c2c[nH]c(-c3ccoc3)c2)c(F)c1 [Cpd 441, N-(4-cyano-2-fluorophenyl)-5-(furan-3-yl)-1H-pyrrole-3-sulfonamide]
16 | < 500 nM | N#Cc1ccc(NS(=O)(=O)c2c[nH]c(-c3cccc4ccoc34)c2)c(F)c1 [Cpd 442, 5-(1-benzofuran-7-yl)-N-(4-cyano-2-fluorophenyl)-1H-pyrrole-3-sulfonamide]
17 | < 500 nM | N#Cc1ccc(NS(=O)(=O)c2c[nH]c(-c3cccc4c3OCC4)c2)c(F)c1 [Cpd 443, N-(4-cyano-2-fluorophenyl)-5-(2,3-dihydro-1-benzofuran-7-yl)-1H-pyrrole-3-sulfonamide]
18 | 500 to 5000 nM | COc1nc(OCC(F)F)c(F)cc1NS(=O)(=O)c1c[nH]cc1Cc1ccccc1 [Cpd 444, 4-benzyl-N-[6-(2,2-difluoroethoxy)-5-fluoro-2-methoxypyridin-3-yl]-1H-pyrrole-3-sulfonamide]
19 | < 500 nM | N#Cc1ccc(NS(=O)(=O)c2c[nH]c(-c3ccco3)c2)c(F)c1 [Cpd 445, N-(4-cyano-2-fluorophenyl)-5-(furan-2-yl)-1H-pyrrole-3-sulfonamide]
20 | 500 to 5000 nM | O=S(=O)(Nc1cc(F)c(Br)cc1F)c1c[nH]c(-c2ccc(F)cc2)c1 [Cpd 446, N-(4-bromo-2,5-difluorophenyl)-5-(4-fluorophenyl)-1H-pyrrole-3-sulfonamide]
21 | 500 to 5000 nM | O=S(=O)(Nc1cc(F)c(Br)cc1F)c1c[nH]c(-c2ccc(F)cc2F)c1 [Cpd 447, N-(4-bromo-2,5-difluorophenyl)-5-(2,4-difluorophenyl)-1H-pyrrole-3-sulfonamide]

Row | IC50 | SMILES
22 | < 500 nM | N#CCOc1cc(F)c(NS(=O)(=O)c2c[nH]c(-c3ccccc3F)c2)cc1F [Cpd 448, N-[4-(cyanomethoxy)-2,5-difluorophenyl]-5-(2-fluorophenyl)-1H-pyrrole-3-sulfonamide]
23 | < 500 nM | N#CCOc1cc(F)c(NS(=O)(=O)c2c[nH]c(-c3cc(Cl)ccc3F)c2)cc1F [Cpd 449, 5-(5-chloro-2-fluorophenyl)-N-[4-(cyanomethoxy)-2,5-difluorophenyl]-1H-pyrrole-3-sulfonamide]
24 | 500 to 5000 nM | N#CCOc1cc(F)c(NS(=O)(=O)c2c[nH]c(-c3ccc(F)cc3)c2)cc1F [Cpd 450, N-[4-(cyanomethoxy)-2,5-difluorophenyl]-5-(4-fluorophenyl)-1H-pyrrole-3-sulfonamide]
25 | 500 to 5000 nM | N#CCOc1cc(F)c(NS(=O)(=O)c2c[nH]c(-c3ccc(F)cc3F)c2)cc1F [Cpd 451, N-[4-(cyanomethoxy)-2,5-difluorophenyl]-5-(2,4-difluorophenyl)-1H-pyrrole-3-sulfonamide]
26 | < 500 nM | O=S(=O)(Nc1cc(F)c(OC(F)F)cc1F)c1c[nH]cc1Cc1cccs1 [Cpd 452, N-[4-(difluoromethoxy)-2,5-difluorophenyl]-4-(thiophen-2-ylmethyl)-1H-pyrrole-3-sulfonamide]
27 | < 500 nM | O=S(=O)(Nc1cc(F)c(OC(F)F)cc1F)c1c[nH]cc1Cc1cccc(F)c1 [Cpd 453, N-[4-(difluoromethoxy)-2,5-difluorophenyl]-4-[(3-fluorophenyl)methyl]-1H-pyrrole-3-sulfonamide]
28 | 500 to 5000 nM | O=S(=O)(Nc1cc(F)c(OC(F)F)cc1F)c1c[nH]cc1Cc1cccc(Cl)c1 [Cpd 454, 4-[(3-chlorophenyl)methyl]-N-[4-(difluoromethoxy)-2,5-difluorophenyl]-1H-pyrrole-3-sulfonamide]
29 | < 500 nM | O=S(=O)(Nc1cc(Cl)c(OC(F)F)cc1F)c1c[nH]c(-c2ccccc2)c1 [Cpd 455, N-[5-chloro-4-(difluoromethoxy)-2-fluorophenyl]-5-phenyl-1H-pyrrole-3-sulfonamide]
30 | < 500 nM | N#Cc1cc(F)c(NS(=O)(=O)c2c[nH]c(-c3cc(Cl)c(F)cc3F)c2)cc1F [Cpd 456, 5-(5-chloro-2,4-difluorophenyl)-N-(4-cyano-2,5-difluorophenyl)-1H-pyrrole-3-sulfonamide]
31 | 500 to 5000 nM | Cc1cc(-c2cc(S(=O)(=O)Nc3cc(F)c(C(F)(F)F)cc3F)c[nH]2)cs1 [Cpd 457, N-[2,5-difluoro-4-(trifluoromethyl)phenyl]-5-(5-methylthiophen-3-yl)-1H-pyrrole-3-sulfonamide]
32 | 500 to 5000 nM | O=S(=O)(Nc1cc(F)c(C(F)(F)F)cc1F)c1c[nH]c(-c2csc(Cl)c2)c1 [Cpd 458, 5-(5-chlorothiophen-3-yl)-N-[2,5-difluoro-4-(trifluoromethyl)phenyl]-1H-pyrrole-3-sulfonamide]
33 | < 500 nM | N#CCOc1cc(F)c(NS(=O)(=O)c2c[nH]c(-c3ccccc3Cl)c2)cc1F [Cpd 459, 5-(2-chlorophenyl)-N-[4-(cyanomethoxy)-2,5-difluorophenyl]-1H-pyrrole-3-sulfonamide]
34 | 500 to 5000 nM | COc1nc(OCC(F)F)c(F)cc1NS(=O)(=O)c1c[nH]cc1-c1cccc(F)c1 [Cpd 460, N-[6-(2,2-difluoroethoxy)-5-fluoro-2-methoxypyridin-3-yl]-4-(3-fluorophenyl)-1H-pyrrole-3-sulfonamide]
35 | 5000 to 50000 nM | Cc1[nH]cc(S(=O)(=O)Nc2ccc(C#N)cc2F)c1-c1ccccc1 [Cpd 461, N-(4-cyano-2-fluorophenyl)-5-methyl-4-phenyl-1H-pyrrole-3-sulfonamide]
36 | < 500 nM | N#Cc1cc(F)c(NS(=O)(=O)c2c[nH]c(-c3c(F)cc(F)cc3F)c2)cc1F [Cpd 462, N-(4-cyano-2,5-difluorophenyl)-5-(2,4,6-trifluorophenyl)-1H-pyrrole-3-sulfonamide]
37 | 500 to 5000 nM | O=S(=O)(Nc1cc(F)c(OCC(F)F)cc1F)c1c[nH]c(-c2ccccc2)c1 [Cpd 463, N-[4-(2,2-difluoroethoxy)-2,5-difluorophenyl]-5-phenyl-1H-pyrrole-3-sulfonamide]
38 | 500 to 5000 nM | COc1cc(CC#N)cnc1NS(=O)(=O)c1c[nH]c(-c2ccccc2F)c1 [Cpd 464, N-[5-(cyanomethyl)-3-methoxypyridin-2-yl]-5-(2-fluorophenyl)-1H-pyrrole-3-sulfonamide]
39 | 500 to 5000 nM | O=S(=O)(Nc1cc(F)c(C(F)(F)F)cc1F)c1c[nH]c(-c2cccc3cccnc23)c1 [Cpd 465, N-[2,5-difluoro-4-(trifluoromethyl)phenyl]-5-quinolin-8-yl-1H-pyrrole-3-sulfonamide]
40 | 500 to 5000 nM | N#CCOc1cc(F)c(NS(=O)(=O)c2c[nH]cc2-c2cccc(F)c2)cc1F [Cpd 466, N-[4-(cyanomethoxy)-2,5-difluorophenyl]-4-(3-fluorophenyl)-1H-pyrrole-3-sulfonamide]
41 | 500 to 5000 nM | O=S(=O)(Nc1cc(F)c(OCC(F)F)cc1F)c1c[nH]cc1Cc1ccccc1 [Cpd 468, 4-benzyl-N-[4-(2,2-difluoroethoxy)-2,5-difluorophenyl]-1H-pyrrole-3-sulfonamide]
